Data from patent US20100099561A1, “HETEROBICYCLIC ALKYLTHIO-BRIDGED ISOXAZOLINES” (E.I. DU PONT DE NEMOURS AND COMPANY, priority 2008, published 2010).

Assays:
Format in all cases: in vivo
[1] = test system: barnyardgrass (Echinochloa crus-galli); assay: Test A preemergence, barnyardgrass; settings: 0 to 100 scale (0 no effect, 100 complete control)
Summary of the method: (§1)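 Visual injury rating, 0 = no effect to 100 = complete control, made roughly ten days after treatment by comparison with untreated controls. Preemergence: directed soil spray onto freshly planted loam/sand. Postemergence: foliar application at one- to two-leaf stage, 2–10 cm height.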

[2] = test system: large crabgrass (Digitaria sanguinalis); assay: Test A preemergence, large crabgrass; settings: 0 to 100 scale (0 no effect, 100 complete control)
Summary of the method: as §1

[3] = test system: giant foxtail (Setaria faberi); assay: Test A preemergence, giant foxtail; settings: 0 to 100 scale (0 no effect, 100 complete control)
Summary of the method: as §1

[4] = test system: morningglory (Ipomoea spp.); assay: Test A preemergence, morningglory; settings: 0 to 100 scale (0 no effect, 100 complete control)
Summary of the method: as §1

[5] = test system: pigweed (Amaranthus retroflexus); assay: Test A preemergence, pigweed; settings: 0 to 100 scale (0 no effect, 100 complete control)
Summary of the method: as §1

[6] = test system: velvetleaf (Abutilon theophrasti); assay: Test A preemergence, velvetleaf; settings: 0 to 100 scale (0 no effect, 100 complete control)
Summary of the method: as §1

[7] = test system: wheat (Triticum aestivum); assay: Test A preemergence, wheat; settings: 0 to 100 scale (0 no effect, 100 complete control)
Summary of the method: as §1

[8] = test system: corn (Zea mays); assay: Test A preemergence, corn; settings: 0 to 100 scale (0 no effect, 100 complete control)
Summary of the method: as §1

[9] = test system: barnyardgrass (Echinochloa crus-galli); assay: Test A postemergence, barnyardgrass; settings: 0 to 100 scale (0 no effect, 100 complete control)
Summary of the method: as §1

[10] = test system: large crabgrass (Digitaria sanguinalis); assay: Test A postemergence, large crabgrass; settings: 0 to 100 scale (0 no effect, 100 complete control)
Summary of the method: as §1

[11] = test system: giant foxtail (Setaria faberi); assay: Test A postemergence, giant foxtail; settings: 0 to 100 scale (0 no effect, 100 complete control)
Summary of the method: as §1

[12] = test system: morningglory (Ipomoea spp.); assay: Test A postemergence, morningglory; settings: 0 to 100 scale (0 no effect, 100 complete control)
Summary of the method: as §1

[13] = test system: pigweed (Amaranthus retroflexus); assay: Test A postemergence, pigweed; settings: 0 to 100 scale (0 no effect, 100 complete control)
Summary of the method: as §1

[14] = test system: velvetleaf (Abutilon theophrasti); assay: Test A postemergence, velvetleaf; settings: 0 to 100 scale (0 no effect, 100 complete control)
Summary of the method: as §1

[15] = test system: wheat (Triticum aestivum); assay: Test A postemergence, wheat; settings: 0 to 100 scale (0 no effect, 100 complete control)
Summary of the method: as §1

[16] = test system: corn (Zea mays); assay: Test A postemergence, corn; settings: 0 to 100 scale (0 no effect, 100 complete control)
Summary of the method: as §1

[17] = test system: rice (Oryza sativa); assay: Test B flooded paddy test, rice; settings: Flood, scale 0 to 100
Summary of the method: (§2)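 Paddy-water application to 2-leaf plants in pots held under 3 cm of flooding; response is a 0–100 visual control rating against controls after 13 to 15 days, and a dash marks a missing result.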

[18] = test system: umbrella sedge (Cyperus difformis); assay: Test B flooded paddy test, umbrella sedge; settings: Flood, scale 0 to 100
Summary of the method: as §2

[19] = test system: ducksalad (Heteranthera limosa); assay: Test B flooded paddy test, ducksalad; settings: Flood, scale 0 to 100
Summary of the method: as §2

[20] = test system: barnyardgrass (Echinochloa crus-galli); assay: Test B flooded paddy test, barnyardgrass; settings: Flood
Summary of the method: as §2

[21] = 250 g ai/ha, scale 0 to 100 (0 no effect, 100 complete control)

## CC1(C)CC(S(=O)(=O)Cc2c(C(F)(F)F)nc3cccnn3c2=O)=NO1 [Compound 45]
[1]; 125 g ai/ha
  Plant response rating, Barnyardgrass: 20
[1]; 500 g ai/ha
  Plant response rating, Barnyardgrass: 90
[2]; 125 g ai/ha
  Plant response rating, Crabgrass, Large: 20
[2]; 500 g ai/ha
  Plant response rating, Crabgrass, Large: 90
[3]; 125 g ai/ha
  Plant response rating, Foxtail, Giant: 30
[3]; 500 g ai/ha
  Plant response rating, Foxtail, Giant: 90
[4]; 125 g ai/ha
  Plant response rating, Morningglory: 0
[4]; 500 g ai/ha
  Plant response rating, Morningglory: 0
[5]; 500 g ai/ha
  Plant response rating, Pigweed: 0
[6]; 125 g ai/ha
  Plant response rating, Velvetleaf: 0
[6]; 500 g ai/ha
  Plant response rating, Velvetleaf: 0
[7]; 125 g ai/ha
  Plant response rating, Wheat: 0
[7]; 500 g ai/ha
  Plant response rating, Wheat: 10
[8]; 125 g ai/ha
  Plant response rating, Corn: 0
[8]; 500 g ai/ha
  Plant response rating, Corn: 0
[9]; 125 g ai/ha
  Plant response rating, Barnyardgrass: 30
[9]; 500 g ai/ha
  Plant response rating, Barnyardgrass: 70
[10]; 125 g ai/ha
  Plant response rating, Crabgrass, Large: 20
[10]; 500 g ai/ha
  Plant response rating, Crabgrass, Large: 70
[11]; 125 g ai/ha
  Plant response rating, Foxtail, Giant: 20
[11]; 500 g ai/ha
  Plant response rating, Foxtail, Giant: 60
[12]; 125 g ai/ha
  Plant response rating, Morningglory: 0
[12]; 500 g ai/ha
  Plant response rating, Morningglory: 30
[13]; 125 g ai/ha
  Plant response rating, Pigweed: 0
[13]; 500 g ai/ha
  Plant response rating, Pigweed: 10
[14]; 125 g ai/ha
  Plant response rating, Velvetleaf: 0
[14]; 500 g ai/ha
  Plant response rating, Velvetleaf: 0
[15]; 125 g ai/ha
  Plant response rating, Wheat: 0
[15]; 500 g ai/ha
  Plant response rating, Wheat: 0
[16]; 125 g ai/ha
  Plant response rating, Corn: 0
[16]; 500 g ai/ha
  Plant response rating, Corn: 0
[17]; 31 g ai/ha
  Plant response rating, Rice: 0
[17]; 62 g ai/ha
  Plant response rating, Rice: 0
[17]; 125 g ai/ha
  Plant response rating, Rice: 0
[17]; 250 g ai/ha
  Plant response rating, Rice: 0
[18]; 31 g ai/ha
  Plant response rating, Sedge, Umbrella: 0
[18]; 62 g ai/ha
  Plant response rating, Sedge, Umbrella: 0
[18]; 125 g ai/ha
  Plant response rating, Sedge, Umbrella: 0
[18]; 250 g ai/ha
  Plant response rating, Sedge, Umbrella: 0
[19]; 31 g ai/ha
  Plant response rating, Ducksalad: 0
[19]; 62 g ai/ha
  Plant response rating, Ducksalad: 0
[19]; 125 g ai/ha
  Plant response rating, Ducksalad: 0
[19]; 250 g ai/ha
  Plant response rating, Ducksalad: 0
[20]; 31 g ai/ha, scale 0 to 100
  Plant response rating, Barnyardgrass: 0
[20]; 62 g ai/ha, scale 0 to 100
  Plant response rating, Barnyardgrass: 0
[20]; 125 g ai/ha, scale 0 to 100
  Plant response rating, Barnyardgrass: 0
[20]; [21]
  Plant response rating, Barnyardgrass: 0

## CC1(C)CC([S+]([O-])Cc2c(C(F)(F)F)nc3cccnn3c2=O)=NO1 (centres unmarked) [Compound 46]
[1]; 125 g ai/ha
  Plant response rating, Barnyardgrass: 0
[1]; 500 g ai/ha
  Plant response rating, Barnyardgrass: 0
[2]; 125 g ai/ha
  Plant response rating, Crabgrass, Large: 0
[2]; 500 g ai/ha
  Plant response rating, Crabgrass, Large: 0
[3]; 125 g ai/ha
  Plant response rating, Foxtail, Giant: 0
[3]; 500 g ai/ha
  Plant response rating, Foxtail, Giant: 0
[4]; 125 g ai/ha
  Plant response rating, Morningglory: 0
[4]; 500 g ai/ha
  Plant response rating, Morningglory: 0
[5]; 125 g ai/ha
  Plant response rating, Pigweed: 0
[5]; 500 g ai/ha
  Plant response rating, Pigweed: 0
[6]; 125 g ai/ha
  Plant response rating, Velvetleaf: 0
[6]; 500 g ai/ha
  Plant response rating, Velvetleaf: 20
[7]; 125 g ai/ha
  Plant response rating, Wheat: 0
[7]; 500 g ai/ha
  Plant response rating, Wheat: 0
[8]; 125 g ai/ha
  Plant response rating, Corn: 0
[8]; 500 g ai/ha
  Plant response rating, Corn: 0
[9]; 125 g ai/ha
  Plant response rating, Barnyardgrass: 0
[9]; 500 g ai/ha
  Plant response rating, Barnyardgrass: 0
[10]; 125 g ai/ha
  Plant response rating, Crabgrass, Large: 0
[10]; 500 g ai/ha
  Plant response rating, Crabgrass, Large: 0
[11]; 125 g ai/ha
  Plant response rating, Foxtail, Giant: 0
[11]; 500 g ai/ha
  Plant response rating, Foxtail, Giant: 0
[12]; 125 g ai/ha
  Plant response rating, Morningglory: 0
[12]; 500 g ai/ha
  Plant response rating, Morningglory: 0
[13]; 125 g ai/ha
  Plant response rating, Pigweed: 0
[13]; 500 g ai/ha
  Plant response rating, Pigweed: 0
[14]; 125 g ai/ha
  Plant response rating, Velvetleaf: 0
[14]; 500 g ai/ha
  Plant response rating, Velvetleaf: 0
[15]; 125 g ai/ha
  Plant response rating, Wheat: 0
[15]; 500 g ai/ha
  Plant response rating, Wheat: 0
[16]; 125 g ai/ha
  Plant response rating, Corn: 0
[16]; 500 g ai/ha
  Plant response rating, Corn: 0
[17]; 31 g ai/ha
  Plant response rating, Rice: 0
[17]; 62 g ai/ha
  Plant response rating, Rice: 0
[17]; 125 g ai/ha
  Plant response rating, Rice: 0
[17]; 250 g ai/ha
  Plant response rating, Rice: 0
[18]; 31 g ai/ha
  Plant response rating, Sedge, Umbrella: 0
[18]; 62 g ai/ha
  Plant response rating, Sedge, Umbrella: 0
[18]; 125 g ai/ha
  Plant response rating, Sedge, Umbrella: 0
[18]; 250 g ai/ha
  Plant response rating, Sedge, Umbrella: 0
[19]; 31 g ai/ha
  Plant response rating, Ducksalad: 0
[19]; 62 g ai/ha
  Plant response rating, Ducksalad: 0
[19]; 125 g ai/ha
  Plant response rating, Ducksalad: 0
[19]; 250 g ai/ha
  Plant response rating, Ducksalad: 0
[20]; 31 g ai/ha, scale 0 to 100
  Plant response rating, Barnyardgrass: 0
[20]; 62 g ai/ha, scale 0 to 100
  Plant response rating, Barnyardgrass: 0
[20]; 125 g ai/ha, scale 0 to 100
  Plant response rating, Barnyardgrass: 0
[20]; [21]
  Plant response rating, Barnyardgrass: 0
